In PubChem BioAssay AID222 (DTP/NCI, 2004):
Values joined by “and” are separate entries in the source; they are usually repeats but may differ in a detail not shown here. Identical values can stand only once. Inconclusive results and toxic doses are left out. How the source made its calls: active means survival T/C of 150% or more; inactive means T/C below 125% in these data.

Tested on: C57BL/6 mice, intracerebral ependymoblastoma, median survival T/C
Test: NCI In Vivo Anticancer Drug Screen. Data for tumor model Ependymoblastoma (intracerebral) in C57BL/6 mice
Settings: endpoint: median survival time, higher = longer survival
Experimental: The antitumor activity of compounds was measured in mice bearing transplantable tumors. Survival or tumor size were measured and the results are expressed as the measurement made in the treated group (T) divided by the measurement made in the vehicle treated control group (C). The tumor model used in this assay is Ependymoblastoma (intracerebral) in C57BL/6 mice

Measured: T/C

CN(C)CCCNc1c2ccccc2nc2cccc([N+](=O)[O-])c12
inactive: dose: 0.01 mg/kg/injection, schedule: Q## X006 (ip), vehicle: saline 99 % of control | dose: 0.03 mg/kg/injection, schedule: Q01DX001 (ip), vehicle: saline 101 % of control | dose: 0.03 mg/kg/injection, schedule: Q## X006 (ip), vehicle: saline 94 % of control | dose: 0.06 mg/kg/injection, schedule: Q01DX001 (ip), vehicle: saline 92 % of control | dose: 0.06 mg/kg/injection, schedule: Q01DX005 (ip), vehicle: saline 99 % of control and 100 % of control and 102 % of control | dose: 0.06 mg/kg/injection, schedule: Q#A X002 (ip), vehicle: saline 101 % of control and 117 % of control | dose: 0.12 mg/kg/injection, schedule: Q01DX001 (ip), vehicle: saline 92 % of control | dose: 0.12 mg/kg/injection, schedule: Q01DX005 (ip), vehicle: saline 98 % of control | dose: 0.12 mg/kg/injection, schedule: Q#A X002 (ip), vehicle: saline 106 % of control and 111 % of control | dose: 0.13 mg/kg/injection, schedule: Q01DX005 (ip), vehicle: saline 94 % of control | dose: 0.25 mg/kg/injection, schedule: Q01DX001 (ip), vehicle: saline 91 % of control | dose: 0.25 mg/kg/injection, schedule: Q#A X002 (ip), vehicle: saline 88 % of control and 101 % of control | dose: 0.5 mg/kg/injection, schedule: Q01DX001 (oral), vehicle: saline 95 % of control | dose: 0.5 mg/kg/injection, schedule: Q#A X002 (ip), vehicle: saline 94 % of control and 100 % of control | dose: 1.0 mg/kg/injection, schedule: Q01DX001 (oral), vehicle: suspension in saline 100 % of control | dose: 1.0 mg/kg/injection, schedule: Q#A X002 (ip), vehicle: saline 87 % of control and 91 % of control | dose: 2.0 mg/kg/injection, schedule: Q01DX001 (ip), vehicle: saline 89 % of control | dose: 2.0 mg/kg/injection, schedule: Q01DX001 (oral), vehicle: saline 104 % of control | dose: 2.0 mg/kg/injection, schedule: Q01DX001 (oral), vehicle: suspension in saline 100 % of control | dose: 2.0 mg/kg/injection, schedule: Q#A X002 (ip), vehicle: saline 87 % of control | dose: 4.0 mg/kg/injection, schedule: Q01DX001 (ip), vehicle: saline 87 % of control | dose: 4.0 mg/kg/injection, schedule: Q01DX001 (oral), vehicle: suspension in saline 91 % of control | dose: 8.0 mg/kg/injection, schedule: Q01DX001 (oral), vehicle: saline 96 % of control | dose: 8.0 mg/kg/injection, schedule: Q01DX001 (oral), vehicle: suspension in saline 96 % of control | dose: 16.0 mg/kg/injection, schedule: Q01DX001 (oral), vehicle: suspension in saline 91 % of control | dose: 3.9 micrograms/kg/injection, schedule: Q## X006 (ip), vehicle: saline 97 % of control | dose: 7.8 micrograms/kg/injection, schedule: Q01DX005 (ip), vehicle: saline 103 % of control | dose: 7.8 micrograms/kg/injection, schedule: Q## X006 (ip), vehicle: saline 97 % of control | dose: 15.6 micrograms/kg/injection, schedule: Q01DX005 (ip), vehicle: saline 110 % of control | dose: 15.6 micrograms/kg/injection, schedule: Q## X006 (ip), vehicle: saline 92 % of control | dose: 16.0 micrograms/kg/injection, schedule: Q01DX005 (ip), vehicle: saline 102 % of control and 113 % of control | dose: 31.2 micrograms/kg/injection, schedule: Q## X006 (ip), vehicle: saline 95 % of control | dose: 32.0 micrograms/kg/injection, schedule: Q01DX005 (ip), vehicle: saline 104 % of control and 111 % of control | dose: 62.5 micrograms/kg/injection, schedule: Q01DX005 (ip), vehicle: saline 107 % of control and 109 % of control | dose: 62.5 micrograms/kg/injection, schedule: Q## X006 (ip), vehicle: saline 97 % of control | dose: 63.0 micrograms/kg/injection, schedule: Q01DX005 (ip), vehicle: saline 103 % of control and 105 % of control

CCN(CC)CCCC(C)Nc1c2ccc(Cl)cc2nc2ccc(OC)cc12 (stereo not drawn)
inactive: dose: 8.0 mg/kg/injection, schedule: Q01DX005 (ip), vehicle: saline 104 % of control | dose: 16.0 mg/kg/injection, schedule: Q01DX005 (ip), vehicle: saline with Tween-80 91 % of control | dose: 16.0 mg/kg/injection, schedule: Q01DX005 (ip), vehicle: saline 98 % of control | dose: 32.0 mg/kg/injection, schedule: Q01DX005 (ip), vehicle: saline with Tween-80 102 % of control | dose: 32.0 mg/kg/injection, schedule: Q01DX005 (ip), vehicle: saline 90 % of control | dose: 64.0 mg/kg/injection, schedule: Q01DX005 (ip), vehicle: saline with Tween-80 94 % of control | dose: 64.0 mg/kg/injection, schedule: Q01DX005 (ip), vehicle: saline 95 % of control | dose: 128.0 mg/kg/injection, schedule: Q01DX005 (ip), vehicle: saline with Tween-80 94 % of control

N[C@H](C(=O)O)[C@@H]1CC(Cl)=NO1
inactive: dose: 1.0 mg/kg/injection, schedule: Q01DX005 (ip), vehicle: saline with Tween-80 93 % of control | dose: 2.0 mg/kg/injection, schedule: Q01DX005 (ip), vehicle: saline with Tween-80 94 % of control | dose: 4.0 mg/kg/injection, schedule: Q01DX005 (ip), vehicle: saline with Tween-80 113 % of control | dose: 8.0 mg/kg/injection, schedule: Q01DX005 (ip), vehicle: saline with Tween-80 108 % of control | dose: 8.0 mg/kg/injection, schedule: Q12HX002 (ip), vehicle: saline 118 % of control | dose: 16.0 mg/kg/injection, schedule: Q01DX001 (ip), vehicle: saline 100 % of control and 114 % of control | dose: 16.0 mg/kg/injection, schedule: Q12HX002 (ip), vehicle: saline 97 % of control | dose: 32.0 mg/kg/injection, schedule: Q01DX001 (ip), vehicle: saline 101 % of control | dose: 32.0 mg/kg/injection, schedule: Q12HX002 (ip), vehicle: saline 113 % of control | dose: 64.0 mg/kg/injection, schedule: Q01DX001 (ip), vehicle: saline 103 % of control and 113 % of control | dose: 64.0 mg/kg/injection, schedule: Q01DX001 (oral), vehicle: saline 93 % of control and 105 % of control | dose: 64.0 mg/kg/injection, schedule: Q12HX002 (ip), vehicle: saline 116 % of control | dose: 128.0 mg/kg/injection, schedule: Q01DX001 (ip), vehicle: saline 106 % of control and 108 % of control | dose: 128.0 mg/kg/injection, schedule: Q01DX001 (oral), vehicle: saline 98 % of control and 106 % of control | dose: 128.0 mg/kg/injection, schedule: Q12HX002 (ip), vehicle: saline 108 % of control | dose: 256.0 mg/kg/injection, schedule: Q01DX001 (ip), vehicle: saline 106 % of control and 108 % of control | dose: 256.0 mg/kg/injection, schedule: Q01DX001 (oral), vehicle: saline 102 % of control and 117 % of control | dose: 512.0 mg/kg/injection, schedule: Q01DX001 (oral), vehicle: saline 106 % of control and 121 % of control | dose: 1024.0 mg/kg/injection, schedule: Q01DX001 (oral), vehicle: saline 110 % of control and 115 % of control
